Source: US7868013B2, “Cycloalkyl substituted pyrimidinediamine compounds and their uses” (Rigel Pharmaceuticals, Inc., priority 2004, dated 2011)
Like-named read-outs stand apart in the source and are kept apart here.

Assays:
[1] = system: H1299 (non-small cell lung carcinoma); test: In vitro antiproliferation assay, H1299 cells (TABLE 1 6 point assay; TABLE 2); format: cell-based; details: Homo sapiens, NCI-H1299, 6 point assay; H1299 cells; read-out: IC50, H1299 cells
Method: (§1) Certain compounds were tested against other cell types for their ability to inhibit proliferation in standard antiproliferation assays.

A549 (lung carcinoma) = test: In vitro antiproliferation assay, A549 cells (TABLE 1 6 point assay; TABLE 2); format: cell-based; details: A549 cells, read-out: IC50, A549 cells
Method: as §1

[2] = Homo sapiens, A549, 6 point assay

| IC50 [1] | IC50 (A549 (lung carcinoma); [2]) | IC50 (A549 (lung carcinoma); 6 point assay) | SMILES |
| --- | --- | --- | --- |
| 100 to 1000 nM | 100 to 1000 nM | – | COCc1cc(Nc2ncc(F)c(N[C@H]3CCC[C@H]3C(N)=O)n2)ccc1N1CCN(C)CC1 (racemic) [compound 216, Racemic-cis-N4-(2-aminocarbonylcyclopent-1-yl)-5-fluoro-N2-[4-(4-methylpiperazin-1-yl)-3-methoxymethylenephenyl]-2,4-pyrimidinediamine] |
| 1000 to 10000 nM | 100 to 1000 nM | – | CN1CCN(c2ccc(Nc3ncc(F)c(N[C@H]4CCC[C@H]4C(N)=O)n3)cc2CO)CC1 (racemic) [compound 217, Racemic-cis-N4-(2-aminocarbonylcyclopent-1-yl)-5-fluoro-N2-[3-hydroxymethylene-4-(4-methylpiperazin-1-yl)phenyl]-2,4-pyrimidinediamine] |
| 1000 to 10000 nM | 1000 to 10000 nM | – | COC(=O)[C@@H]1CCC[C@@H]1Nc1nc(Nc2ccc(N3CCN(C)CC3)c(C)c2)ncc1F (racemic) [compound 218, Racemic-cis-5-fluoro-N2-[3-methyl-4-(4-methylpiperazin-1-yl)phenyl]-N4-(2-methoxycarbonylcyclopent-1-yl)-2,4-pyrimidinediamine] |
| 1000 to 10000 nM | – | 100 to 1000 nM | Cc1cc(Nc2ncc(F)c(N[C@H]3CCCC[C@H]3C(N)=O)n2)ccc1N1CCN(C)CC1 (racemic) [compound 223, Racemic-cis-N4-(2-aminocarbonylcyclohex-1-yl)-5-fluoro-N2-[3-methyl-4-(4-methylpiperazin-1-yl)phenyl]-2,4-pyrimidinediamine] |
| 1000 to 10000 nM | 1000 to 10000 nM | – | Cc1cc(Nc2ncc(F)c(N[C@H]3C=CCC[C@H]3C(N)=O)n2)ccc1N1CCN(C)CC1 (racemic) [compound 227, Racemic-cis-N4-(2-aminocarbonylcyclohex-5-ene-1-yl)-5-fluoro-N2-[3-methyl-4-(4-methylpiperazin-1-yl)phenyl]-2,4-pyrimidinediamine] |
| > 10000 nM | > 10000 nM | – | Cc1cc(Nc2ncc(F)c(N[C@@H]3CC=CC[C@H]3C(N)=O)n2)ccc1N1CCN(C)CC1 (racemic) [compound 229, Racemic-N4-(2-aminocarbonylcyclohex-4-ene-1-yl)-5-fluoro-N2-[3-methyl-4-(4-methylpiperazin-1-yl)phenyl]-2,4-pyrimidinediamine] |
| ≤ 100 nM | ≤ 100 nM | – | CN1CCN(c2ccc(Nc3ncc(F)c(NC4C5C=CC(C5)C4C(N)=O)n3)cc2)CC1 (racemic) [compound 230, Racemic-(2-exo,3-exo)-N4-(3-aminocarbonylbicyclo[2.2.1]hept-5-en-2-yl)-5-fluoro-N2-[4-(4-methylpiperazin-1-yl)phenyl]-2,4-pyrimidinediamine] |
| ≤ 100 nM | ≤ 100 nM | – | CN1CCN(c2cccc(Nc3ncc(F)c(NC4C5C=CC(C5)C4C(N)=O)n3)c2)CC1 (racemic) [compound 231, Racemic-(2-exo,3-exo)-N4-(3-aminocarbonylbicyclo[2.2.1]hept-5-en-2-yl)-5-fluoro-N2-[3-(4-methylpiperazin-1-yl)]phenyl-2,4-pyrimidinediamine] |
| ≤ 100 nM | ≤ 100 nM | – | Cc1cc(Nc2ncc(F)c(NC3C4C=CC(C4)C3C(N)=O)n2)ccc1N1CCN(C(C)C)CC1 (racemic) [compound 232, Racemic-(2-exo,3-exo)-N4-(3-aminocarbonylbicyclo[2.2.1]hept-5-en-2-yl)-5-fluoro-N2-[4-(4-isopropylpiperazin-1-yl)-3-methylphenyl]-2,4-pyrimidinediamine] |
| ≤ 100 nM | ≤ 100 nM | – | CN1CCN(c2ccc(Nc3ncc(F)c(NC4C5C=CC(C5)C4C(N)=O)n3)cc2Cl)CC1 (racemic) [compound 233, Racemic-(2-exo,3-exo)-N4-(3-aminocarbonylbicyclo[2.2.1]hept-5-en-2-yl)-N2-[3-chloro-4-(4-methylpiperazin-1-yl)phenyl]-5-fluoro-2,4-pyrimidinediamine] |
| ≤ 100 nM | ≤ 100 nM | – | COCc1cc(Nc2ncc(F)c(NC3C4C=CC(C4)C3C(N)=O)n2)ccc1N1CCN(C)CC1 (racemic) [compound 235, Racemic-(2-exo,3-exo)-N4-(3-aminocarbonylbicyclo[2.2.1]hept-5-en-2-yl)-5-fluoro-N2-[3-methoxymethyl-4-(4-methylpiperazin-1-yl)phenyl)-2,4-pyrimidinediamine] |
| ≤ 100 nM | ≤ 100 nM | – | CN1CCN(c2ccc(Nc3ncc(F)c(NC4C5C=CC(C5)C4C(N)=O)n3)cc2CO)CC1 (racemic) [compound 236, Racemic-(2-exo,3-exo)-N4-(3-aminocarbonylbicyclo[2.2.1]hept-5-en-2-yl)-5-fluoro-N2-[3-hydroxymethyl-4-(4-methylpiperazin-1-yl)phenyl]-2,4-pyrimidinediamine] |
| ≤ 100 nM | ≤ 100 nM | – | CN1CCN(c2ccc(Nc3ncc(F)c(NC4C5C=CC(C5)C4C(N)=O)n3)cc2F)CC1 (racemic) [compound 239, Racemic-(2-exo,3-exo)-N4-(3-aminocarbonylbicyclo[2.2.1]hept-5-en-2-yl)-5-fluoro-N2-[3-fluoro-4-(4-methylpiperazin-1-yl)phenyl]-2,4-pyrimidinediamine] |
| ≤ 100 nM | ≤ 100 nM | – | Cc1cc(Nc2ncc(F)c(N[C@@H]3[C@H]4CC[C@H](C4)[C@@H]3C(N)=O)n2)ccc1N1CCN(C)CC1 (racemic) [compound 240, Racemic-(2-exo,3-exo)-N4-(3-aminocarbonylbicyclo[2.2.1]hept-2-yl)-5-fluoro-N2-[3-methyl-4-(4-methylpiperazin-1-yl)phenyl]-2,4-pyrimidinediamine] |
| ≤ 100 nM | ≤ 100 nM | – | CCN1CCN(c2ccc(Nc3ncc(F)c(NC4C5C=CC(C5)C4C(N)=O)n3)cc2C)CC1 (racemic) [compound 241, Racemic-(2-exo,3-exo)-N4-(3-aminocarbonylbicyclo[2.2.1]hept-5-en-2-yl)-N2-[4-(4-ethylpiperazin-1-yl)-3-methylphenyl]-5-fluoro-2,4-pyrimidinediamine] |
| ≤ 100 nM | ≤ 100 nM | – | CN1CCN(c2ccc(Nc3ncc(F)c(NC4C5C=CC(C5)C4C(N)=O)n3)cc2C#N)CC1 (racemic) [compound 243, Racemic-(2-exo,3-exo)-N4-(3-aminocarbonylbicyclo[2.2.1]hept-5-en-2-yl)-N2-[3-cyano-4-(4-methylpiperazin-1-yl)phenyl]-5-fluoro-2,4-pyrimidinediamine] |
| ≤ 100 nM | ≤ 100 nM | – | Cc1cc(Nc2ncc(F)c(NC3C4C=CC(C4)C3C(N)=O)n2)ccc1N1CCN(C2CCCCC2)CC1 (racemic) [compound 245, Racemic-(2-exo,3-exo)-N4-(3-aminocarbonylbicyclo[2.2.1]hept-5-en-2-yl)-N2-[4-(4-cyclohexylpiperazin-1-yl)-3-methylphenyl]-5-fluoro-2,4-pyrimidinediamine] |
| ≤ 100 nM | ≤ 100 nM | – | Cc1cc(Nc2ncc(F)c(NC3C4C=CC(C4)C3C(N)=O)n2)ccc1O (racemic) [compound 250, Racemic-(2-exo,3-exo)-N4-(3-aminocarbonylbicyclo[2.2.1]hept-5-en-2-yl)-5-fluoro-N2-[(4-hydroxy-3-methyl)phenyl]-2,4-pyrimidinediamine] |
| ≤ 100 nM | ≤ 100 nM | – | Cc1cc(Nc2ncc(F)c(NC3C4C=CC(C4)C3C(N)=O)n2)ccc1N1CCSCC1 (racemic) [compound 251, Racemic-(2-exo,3-exo)-N4-(3-aminocarbonylbicyclo[2.2.1]hept-5-en-2-yl)-5-fluoro-N2-[(3-methyl-1-thiomorpholin-4-yl)phenyl]-2,4-pyrimidinediamine] |
| ≤ 100 nM | ≤ 100 nM | – | Cc1cc(Nc2ncc(F)c(NC3C4CCC(C4)C3C(=O)NC3CC3)n2)ccc1N1CCN(C)CC1 (racemic) [compound 252, Racemic-(2-exo,3-exo)-N4-(3-N-cyclopropylaminocarbonylbicyclo[2.2.1]hept-2-yl)-5-fluoro-N2-[3-methyl-4-(4-methylpiperazin-1-yl)phenyl]-2,4-pyrimidinediamine] |
| 1000 to 10000 nM | 1000 to 10000 nM | – | CNC(=O)c1cc(Nc2ncc(F)c(NC3C4C=CC(C4)C3C(=O)OC)n2)ccc1N1CCN(C)CC1 (racemic) [compound 254, Racemic-(2-exo,3-exo)-5-fluoro-N4-(3-methoxycarbonylbicyclo [2.2.1]hept-5-en-2-yl)-N2-[3-methylaminocarbonyl-4-(4-methylpiperazin-1-yl)phenyl]-2,4-pyrimidinediamine] |
| 100 to 1000 nM | 100 to 1000 nM | – | CNC(=O)c1cc(Nc2ncc(F)c(NC3C4C=CC(C4)C3C(N)=O)n2)ccc1N1CCN(C)CC1 (racemic) [compound 255, Racemic-(2-exo,3-exo)-N4-(3-aminocarbonylbicyclo[2.2.1]hept-5-en-2-yl)-5-fluoro-N2-[3-methylaminocarbonyl-4-(4-methylpiperazin-1-yl)phenyl]-2,4-pyrimidinediamine] |
| ≤ 100 nM | ≤ 100 nM | – | COc1cc(Nc2ncc(F)c(NC3C4C=CC(C4)C3C(N)=O)n2)ccc1N1CCN(C)CC1 (racemic) [compound 256, Racemic-(2-exo,3-exo)-N4-(3-aminocarbonylbicyclo[2.2.1]hept-5-en-2-yl)-5-fluoro-N2-[3-methoxy-4-(4-methylpiperazin-1-yl)phenyl]-2,4-pyrimidinediamine] |
| 100 to 1000 nM | 100 to 1000 nM | – | CN1CCN(c2ccc(Nc3ncc(F)c(NC4C5C=CC(C5)C4C(N)=O)n3)cc2C(N)=O)CC1 (racemic) [compound 260, Racemic-(2-exo,3-exo)-N2-[3-aminocarbonyl-4-(4-methylpiperazin-1-yl)phenyl]-N4-(3-aminocarbonylbicyclo[2.2.1]hept-5-en-2-yl)-5-fluoro-2,4-pyrimidinediamine] |
